Assay results: patent US20250109141A1, “BRD4 PROTEIN DEGRADER COMPOUND, AND PREPARATION METHOD AND USE THEREOF” (Miracure Biotechnology Limited, priority 2023, published 2025)
Where two headings read alike, the source gives them in different places.

Assays:
[1] = tested on: 22RV1; assay: Cell proliferation assay (CellTiterGlo, 72 h), 22RV1; type: cell-based; details: Homo sapiens, read-out: 22Rv1 ATP average IC50
Experimental: All incubations were performed at 37° C. in a humidified carbon dioxide incubator.
(§1) The cells were seeded in a 96-well plate (white wall/transparent bottom) at 5000 cells/well and cultured overnight.
(§2) On day 2, A stock solution of the compound at a concentration of 10 mM was subjected to an 8-fold serial dilution to obtain 8 concentration points. 2 μL of the compound solution at each concentration point was added to 98 μL of fresh medium, and the mixture was mixed homogeneously. Then, 5 μL of the compound solution diluted in the medium at each concentration point was added to 100 μL of overnight medium containing the cells, and 2 replicates were set for each concentration. The mixture was cultured for 72 h.
(§3) After 72 h of compound treatment, the plate was equilibrated to room temperature, 100 μL of CellTiterGlo (Promega) was added. The mixture was mixed homogeneously for 2 min, left to stand at room temperature for 10 min, and then read for luminescence values on a SpectraMax M5 microplate reader to evaluate cell viability. The positive control was 1% Tween-20 and the negative control was 0.1% DMSO. IC50 was generated by 4-parameter non-linear regression fitting in GraphPad Prism.

[2] = tested on: LNCaP; assay: Cell proliferation assay (CellTiterGlo, 72 h), LNCaP; type: cell-based; details: Homo sapiens, LNCap cells, 72 h compound treatment, read-out: LNCap ATP average IC50
Experimental: The cell line used was 22RV1 or LNCaP, and the medium was RPMI-1640 containing 10% FBS and antibiotics. All incubations were performed at 37° C. in a humidified carbon dioxide incubator.
On day 1, cells were digested with 0.25% trypsin (containing EDTA) and collected by centrifugation.
as §1, §2, §3

[3] = 22Rv1 cells, 72 h compound treatment, CellTiterGlo

SMILES	IC50 [1, 3] [nM]	IC50 [2] [nM]	IC50 ([1]; 22Rv1, 72 h) [nM]
COC(=O)C=Cc1ccc(C2=N[C@@H](CC(=O)OC(C)(C)C)c3nnc(C)n3-c3sc(C)c(C)c32)cc1 [Compound 9118]	200 to 500	< 50	
Cc1sc2c(c1C)C(c1ccc(/C=C/CNS(C)(=O)=O)cc1)=N[C@@H](CC(=O)OC(C)(C)C)c1nnc(C)n1-2 [Compound 9200]	50 to 200	50 to 200	
COc1ccc2c(c1)C(c1ccc3c(c1)NC(=O)CC3)=N[C@@H](CC(=O)OC(C)(C)C)c1nnc(C)n1-2 [Compound 9211]		> 500	> 500
Cc1noc2c1-c1ccccc1C(c1ccc(/C=C/CNO)cc1)=N[C@H]2CC(=O)OC(C)(C)C [Compound 9095]	50 to 200	50 to 200	
Cc1sc2c(c1C)C(c1ccc(/C=C/CNC(=N)N)cc1)=N[C@@H](CC(=O)OC(C)(C)C)c1nnc(C)n1-2 [Compound 9110]	> 500	> 500	
CC(=O)ONC/C=C/c1ccc(C2=N[C@@H](CC(=O)OC(C)(C)C)c3nnc(C)n3-c3sc(C)c(C)c32)cc1 [Compound 9144]	< 50	< 50	
Cc1sc2c(c1C)C(c1ccc(N3CC4(CC(N)C4)C3)cc1)=N[C@@H](CC(=O)OC(C)(C)C)c1nnc(C)n1-2 [Compound 9066]	200 to 500	< 50	
Cc1sc2c(c1C)C(c1ccc(C#CCN)cc1)=N[C@@H](CC(N)=O)c1nnc(C)n1-2 [Compound 9001]		200 to 500	> 500
Cc1sc2c(c1C)C(c1ccc(C#CCN)cc1)=N[C@@H](CC(=O)NCCO)c1nnc(C)n1-2 [Compound 9076]		200 to 500	> 500
Cc1sc2c(c1C)C(c1ccc(-c3cc(=O)[nH]o3)cc1)=N[C@@H](CC(=O)OC(C)(C)C)c1nnc(C)n1-2 [Compound 9003]	> 500	50 to 200	
COc1ccc2c(c1)C(c1ccc(C#CCN)cc1)=N[C@@H](CC(=O)O)c1nnc(C)n1-2 [Compound 9070]		> 500	> 500
C#CCNC(=O)C[C@@H]1N=C(c2ccc(C#CCN)cc2)c2c(sc(C)c2C)-n2c(C)nnc21 [Compound 9038]		200 to 500	50 to 200
Cc1sc2c(c1C)C(c1ccc(C#CCN)cc1)=N[C@@H](CC(=O)Nc1ccc(O)cc1)c1nnc(C)n1-2 [Compound 9012]		50 to 200	200 to 500
Cc1sc2c(c1C)C(c1ccc(C#CCN)cc1)=N[C@@H](CCOC(=O)C(C)(C)C)c1nnc(C)n1-2 [Compound 9091]		200 to 500	50 to 200
Cc1noc2c1-c1ccccc1C(c1ccc(C#CCN)cc1)=N[C@H]2CC(=O)OC(C)(C)C [Compound 9098]	> 500	> 500	
Cc1sc2c(c1C)C(c1ccc(-c3cccc(CN)c3)cc1)=NC(CC(=O)OC(C)(C)C)c1nnc(C)n1-2 (stereo not shown) [Compound 9085]	> 500	50 to 200	
Cc1sc2c(c1C)C(c1ccc(N3CC(CO)C3)cc1)=N[C@@H](CC(=O)OC(C)(C)C)c1nnc(C)n1-2 [Compound 9105]	200 to 500		
Cc1sc2c(c1C)C(c1ccc(N3CC(CN)C3)cc1)=N[C@@H](CC(=O)OC(C)(C)C)c1nnc(C)n1-2 [Compound 9061]	50 to 200	200 to 500	
Cc1sc2c(c1C)C(c1ccc(-c3cc(=O)n(C)o3)cc1)=N[C@@H](CC(=O)OC(C)(C)C)c1nnc(C)n1-2 [Compound 9053]	50 to 200	50 to 200	
Cc1noc2c1-c1ccccc1C(c1ccc(C#CCN)cc1)=N[C@H]2Cc1nccs1 [Compound 9141]	> 500	> 500	
Cc1sc2c(c1C)C(c1ccc(C#CCN)cc1)=N[C@@H](CC(=O)N(C)O)c1nnc(C)n1-2 [Compound 9025]		50 to 200	200 to 500
Cc1sc2c(c1C)C(c1ccc(C#CCN)cc1)=N[C@@H](CC(=O)N(C)N)c1nnc(C)n1-2 [Compound 9026]		> 500	> 500
Cc1sc2c(c1C)C(c1ccc(C3CC3CN)cc1)=N[C@@H](CC(=O)OC(C)(C)C)c1nnc(C)n1-2 (stereo partly shown) [Compound 9138]	> 500	> 500	
Cc1sc2c(c1C)C(c1ccc(-c3cc(CN)nn3C)cc1)=N[C@@H](CC(=O)OC(C)(C)C)c1nnc(C)n1-2 [Compound 9058]	> 500	200 to 500	
COC(=O)C[C@@H]1N=C(c2ccc(/C=C/CNO)c(F)c2)c2cc(OC)ccc2-n2c(C)nnc21 [Compound 9213]		< 50	< 50
